# Assay results as given in patent US20100261682A1, “Method and Means for the Treatment of Cachexia” (Bioneris AB, priority 2007, published 2010).
# Tests used:
# [1] = test system: MAC16 tumour-bearing mice; test: Body weight, food and water intake in MAC16 tumour-bearing mice treated with lipid soluble alpha-trinositol (Example 5); type: in vivo, NMRI mice; conditions: for weight loss compared to the control group: 5 days
# Excerpt: Materials. Lipid soluble alpha trinositol (1-D-tri-O-hexanoyl-myo-inositol 1,2,6-triphosphate) was formed by further esterification of 1-D-Myo-inositol 1,2,6-triphosphate.
# (§1) Animals. Pure strain male NMRI mice (average body weight 25 g) were transplanted with fragments of the MAC16 tumour subcutaneously into the flank by means of a trochar, selected from donor animals with established weight loss (Bibby M C et al., Characterization of transplantable adenocarcinoma in the mouse colon producing cachexia in the recipient animals. J Natl Cancer Inst 78 (1987) 539-546). Transplanted animals were given a rat and mouse breeding diet (Special Diet Services, Witham, UK) and water at lib. Weight loss was evident 10 to 12 days after tumour implantation. Just prior to the development of weight loss […] were randomized into three groups of six animals each.
# (§2) Administration of alpha-trinositol. A first experiment was started when the animals had lost about 5% of body weight. Aliquots of lipid soluble alpha-trinositol stock solution corresponding to doses of 6 mg/kg body weight and 8 mg/kg body weight for a 25 g animal were administered subcutaneously three times per day at 8.00, 12.00 and 16.00 hrs. The third group (control) was given an intravenous injection of 10 μl of PBS. Body weight (FIG. 26), tumour volume, and food (FIG. 27) and water (FIG. 28) intake were determined daily (for 5 days) after the last injection. Day 0 is the day of transplant and day 1 is the start of the experiment. The experiment was terminated on day 5 due to loss of controls.
# [2] = test system: MAC16 tumour; test: Tumour volume in MAC16 tumour-bearing mice treated with lipid soluble alpha-trinositol (Example 5); type: in vivo, NMRI mice; conditions: 6 mg/kg and 8 mg/kg groups versus control
# Excerpt: as §1, §2
compound,measurement,setting,value
"CCCCCC(=O)O[C@@H]1[C@@H](OC(=O)CCCCC)[C@@H](OP(=O)(O)O)[C@@H](OP(=O)(O)O)[C@H](OP(=O)(O)O)[C@H]1OC(=O)CCCCC [lipid soluble alpha trinositol, 1-D-tri-O-hexanoyl-myo-inositol 1,2,6-triphosphate]",weight loss compared to the control group,[1]; 6 mg/kg s.c. three times per day,significantly lower weight loss
same,weight loss compared to the control group,[1]; 8 mg/kg s.c. three times per day,significantly lower weight loss
same,average weight loss in 5 days,"[1]; highest concentration (8 mg/kg), control about 6 g",about 3 g
same,increase in tumour volume,[2],slightly higher in the control group
